Data: ChEMBL document CHEMBL1154133, “Pestalazines and pestalamides, bioactive metabolites from the plant pathogenic fungus Pestalotiopsis theae” (J Nat Prod, 2008)
In brackets after ≈: the same amount, converted by molar mass. Counter-ions that a name gives are not always drawn.

Columns and labels:
[1] = test system: Human immunodeficiency virus 1; experiment: Antiviral activity against HIV1 LAI infected in human C8166 cells assessed as inhibition of viral replication by ELISA; assay type: functional, organism-based; settings: Human immunodeficiency virus 1, LAI
Aspergillus fumigatus [2] = experiment: Antifungal activity against Aspergillus fumigatus ATCC 10894 by alamar blue assay; assay type: functional
Aspergillus fumigatus [3] = experiment: Antifungal activity against Aspergillus fumigatus ATCC 10894 by microplate reader assay; assay type: functional, organism-based
[4] = Cytotoxicity against human C8166 cells after 4 days by MTT assay; assay type: cell-based

## CC(C)(C)NC(=O)[C@@H]1CN(Cc2cccnc2)CCN1C[C@@H](O)C[C@@H](Cc1ccccc1)C(=O)N[C@H]1c2ccccc2C[C@H]1O [INDINAVIR SULFATE]
[1]
  EC50: 5.5 nM

## C[C@@H](CC(=O)NC(=O)c1coc(Cc2ccccc2)cc1=O)C(=O)O [PESTALAMIDE A]
Aspergillus fumigatus [2]
  MIC: 57.8 µM (≈ 19.8 µg/mL)
Aspergillus fumigatus [3]
  IC50: 1500 nM
[1]
  EC50: 64200 nM
[4]
  CC50 at 96 h: > 100000 nM

## OC(Cn1cncn1)(Cn1cncn1)c1ccc(F)cc1F [FLUCONAZOLE]
Aspergillus fumigatus [2]
  MIC: 163 µM (≈ 50 µg/mL)
